Source: patent US4616028A, “Substituted 2,3,4,9-tetrahydro-1H-carbazole-1-acetic acid derivatives, compositions and use” (American Home Products Corporation, priority 1985, dated 1986)
Counter-ions that a name gives are not always drawn.

How the values were obtained:
Adjuvant Edema = experiment: Preventative Adjuvant Edema (Freund's complete adjuvant, hind paw volume); assay type: in vivo, rat (male Sprague Dawley); conditions: for ED50: ED50, rat (second results table)
Method: This test is a primary screen for anti-inflammatory drugs.
Male Sprague Dawley rats (180-200 g) are used. The animals have free access water but food is withdrawn 18 hours before testing.
Drug Preparations and Administration:
Freund's complete adjuvant is prepared by suspending 5 mg killed and dried Mycobacterium butyricum (Difco) in 1 ml liquid paraffin. The test compounds are dissolved in distilled water or suspended in distilled water with a few drops of Tween 80 according to their solubility. For primary screening all drugs are administrated by gastric lavage at the arbitrary dosage of 100 mg/kg, p.o. in a volume of 0.5 ml/100 g body weight to groups of 10 animals.
The method is essentially that described by Wax et al., J. Pharmacol. Exp. Ther., 192, 166-171 (1975). Groups of rats are injected intradermally in the left hind paw with 0.1 ml of Freund's complete adjuvant. The test compound or vehicle is administrated before the adjuvant, 24 hours and 48 hours after the adjuvant (day 0, 1 and 2). The injected hind paw volume is measured before the injection of adjuvant and 24 hrs. after the last drug administration (day 3) by means of a plethysmometer (Buxco Electronics Inc.). The difference between then hind paw volume on day 0 and day 3 represents the edema volume. Phenylbutazone (50 mg/kg, p.o.) is included as a positive control.
The mean edema volume (expressed as ml±SEM) is calculated for each group and the percentage protection conferred by the drug is calculated:
where c is the mean edema volume for the untreated controls and t is the mean edema volume for the drug treated group.

Phenylquinone Writhing = experiment: Phenylquinone-induced writhing in mice; assay type: in vivo, mouse (male Swiss albino); conditions: for ED50: ED50, mice (second results table)
Method: A further test used to determine the utility of the compounds of the present invention is designated: DRUG EFFECTS ON PHENYLQUINONE-INDUCED WRITHING IN MICE […]
The objective of this test is to determine the ability of test drugs to inhibit the nociceptive (pain) response of mice injected with a chemical irritant. This test is a primary screen for both peripheral and centrally acting analgesic drugs.
Male Swiss albino mice (15-25 g). The animals are fasted for 18 hours prior to use but have free access to water.
(§1) Drug Preparation and Administration:
Drugs are dissolved or suspended according to their solubility in 0.5% methyl cellulose or 0.5% Tween 80. They are administered by gastric lavage in a volume of 5 ml/kg. For primary screening all drugs are administered at the arbitrary dosage of 200 mg/kg, p.o. to a group of 10 mice.
A modification of the method of Siegmund at el., Proc. Soc. Exp. Biol. Med., 95, 729-731 (1957) is used. Groups of 5 mice are dosed with the test compound or vehicle control. Sixty minutes later the animals are injected i.p. with 0.3 ml/20 g body weight of a 0.02% solution of phenylquinone (PBQ; 2-phenyl-1,4-benzoquinone) and placed in individual observation boxes. The numer of writhing or abdominal squirming movements made by each mouse during the following 15 min. period is counted. The experiment is repeated with another group of 5 mice and the mean number of writhes per mouse for a group of 10 mice is calculated.
Drug treated and vehicle-treated control groups are compared and the percentage protection conferred by the drug is calculated:
Percentage protection=(c-t)100/c […]
where c=mean number of writhes in the control group where t=mean number of writhes in the test drug group

inflamed paw = experiment: Paw Pressure Test in the Rat (Freund's adjuvant inflamed paw, pain threshold); assay type: in vivo, rat (male Sprague Dawley); conditions: po
From the text: A still further test used to determine the utility of the compounds of the present invention is designated: PAW PRESSURE TEST IN THE RAT
The objective of this test is to assess the potency of peripheral and central acting drugs in inhibiting the reaction of rats to painful stimulation applied to an inflamed paw.
Male Sprague Dawley rats (180-200 g) are used. The animals are fasted overnight prior to drug administration.
as §1
Freund's Complete Adjuvant (FCA) is prepared by suspending 5 mg killed and dried mycobacterium butyricum (Difco) in 1 ml liquid paraffin. The test compounds are dissolved, or suspended with a few drops of Tween 80, in distilled water according to their solubility. They are administered by gastric gavage in a volume of 0.5 ml/100 g body weight to groups of 10 animals.
Ten rats are used per group. The method is essentially that described by Randall, et al., Arch. Int. Pharmacodyn. 111, 409 (1957) and the apparatus which is used to apply pressure to the paw (Analgesy-meter for the rat paw, Ugo Basile from Coulbourn Instruments) is a modification of that described by Gilfoil et al., J. Pharmacol, 142, 1 (1963). The instrument is basically a device which exerts a force that increases at a constant rate. The force is continuously monitored by a pointer moving along a linear scale and is measured in grams. The inflammatory reaction is induced in the left hind paw of rats by injecting 0.1 ml of Freund's adjuvant intradermally. The test compound or vehicle is administered 24 hours after the adjuvant. Prior to drug administration the rats are selected for their paw sensitivity. Rats responding to a pain threshold greater than 10 g applied to the inflamed paw are rejected. The pain threshold (vocalization) is determined 1 and 3 hours later in the inflamed paw and the normal paw of the treated and control groups. The higher of the 2 readings will be considered as representative of the drug effect on the pain threshold.
Presentation of results and Criteria for Activity:
Each animal which has a reading 1.5 times greater than the mean reading of the control-group will be considered as responsive to treatment. The number of animals showing an analgesic effect is then determined in each group.
The ED50 (dose which causes analgesia in 50% of the animals) using at least 3 doses is then determined, by the method described in Litchfield et al., J. Pharmacol. Exp. Ther., 96, 99 (1949).

[1] = ED50, rat (second results table)
[2] = po, 72 h, rat (second results table), read-out: Preventative Adjuvant Edema percent inhibition

Row | Structure (SMILES) | ED50 (Phenylquinone Writhing; Mus musculus, po) [mg/kg] | ED50 (inflamed paw; [1]) [mg/kg] | inhibition in vivo at 25 mg/kg (Adjuvant Edema; [2]) [%] | ED50 (Adjuvant Edema; po) [mg/kg] | other results
1 | C=CC[C@@H]1CC[C@](CC)(CC(=O)O)c2[nH]c3ccc(CCCC)cc3c21 (relative stereo) [Example 8] | 10.6 | 0.2 | – | – | inhibition in vivo at 5 mg/kg (Adjuvant Edema; po, 72 h, dose 5 mg/kg, rat (second results table), read-out: Preventative Adjuvant Edema percent inhibition): 56%
2 | C=CC[C@@H]1CC[C@](CC)(CC(=O)O)c2[nH]c3c(C)ccc(C)c3c21 (relative stereo) [Example 31] | 2.3 | 0.3 | 42 | – | –
3 | C=CC[C@H]1CC[C@@](CC)(CC(=O)O)c2[nH]c3c(CC)cccc3c21 [Example 45, (1S-cis)-1,8-Diethyl-2,3,4,9-tetrahydro-4-(2-propenyl)-1H-carbazole-1-acetic Acid Benzenemethanamine Salt (1:1)] | – | 0.011 | 54 | – | inhibition in vivo at 25 mg/kg (Phenylquinone Writhing; Mus musculus, po, dose 25 mg/kg, mice (second results table), read-out: Phenylquinone Writhing in Mice percent inhibition): 94%
4 | C=CC[C@@H]1CC[C@](CC)(CC(=O)O)c2[nH]c3cc(CC)ccc3c21 (relative stereo) [Example 7] | 10 | 0.01 | 36 | – | –
5 | C=CC[C@@H]1CC[C@](CC)(CC(=O)O)c2[nH]c3c(Cl)c(Cl)ccc3c21 (relative stereo) [Example 32, cis-7,8-dichloro-1-ethyl-2,3,4,9-tetrahydro-4-(2-propenyl)-1H-carbazole-1-acetic acid] | 2 | 0.08 | 22 | – | –
6 | C=CC[C@@H]1CC[C@](CC)(CC(=O)O)c2[nH]c3c(C)c(F)ccc3c21 (relative stereo) [Example 29] | 12.3 | 0.1 | – | 6.4 | –
7 | C=CC[C@@H]1CC[C@](CC)(CC(=O)O)c2[nH]c3ccccc3c21 (relative stereo) [Example 3, cis-1-Ethyl-2,3,4,9-tetrahydro-4-(2-propenyl)-1H-carbazole-1-acetic Acid] | – | – | – | – | Preventative Adjuvant Edema % Inhibition (Adjuvant Edema; 10 mg/kg, p.o., rat): 50%; Phenylquinone Writhing in Mice % Inhibition (Phenylquinone Writhing; 20 mg/kg, p.o., mice): 50%; ED50 (inflamed paw; dose which causes analgesia in 50% of the animals, rat): 0.01 mg/kg
8 | C=CC[C@@H]1CC[C@](CC)(CC(=O)O)c2[nH]c3c(C)c(Cl)ccc3c21 (relative stereo) [Example 30, cis-7-chloro-1-ethyl-2,3,4,9-tetrahydro-8-methyl-4-(2-propenyl)-1H-carbazole-1-acetic acid] | 2.6 | 0.007 | – | 15 | –
9 | C=CC[C@@H]1CC[C@](CC)(CC(=O)O)c2[nH]c3cc(Cl)ccc3c21 (relative stereo) [Example 20] | 5.1 | 0.38 | – | 5.4 | –
10 | C=CC[C@H]1CC[C@](CC)(CC(=O)O)c2[nH]c3c(CC)cccc3c21 (relative stereo) [Example 4] | – | 0.02 | 35 | – | inhibition in vivo at 100 mg/kg (Phenylquinone Writhing; Mus musculus, po, dose 100 mg/kg, mice (second results table), read-out: Phenylquinone Writhing in Mice percent inhibition): 9%
11 | C=CC[C@@H]1CC[C@](CC)(CC(=O)O)c2[nH]c3ccc(CC)cc3c21 (relative stereo) [Example 6] | 103 | 0.01 | 21 | – | inhibition in vivo at 10 mg/kg (Adjuvant Edema; po, 72 h, dose 10 mg/kg, rat (second results table), read-out: Preventative Adjuvant Edema percent inhibition): 36%
12 | C=CC[C@@H]1CC[C@](CC)(CC(=O)O)c2[nH]c3c(Cl)ccc(C)c3c21 (relative stereo) [Example 34] | 7.6 | 0.46 | – | 2.6 | –
13 | C=CC[C@@H]1CC[C@](CC)(CC(=O)O)c2[nH]c3c(C)cccc3c21 (relative stereo) [Example 11, cis-1-ethyl-2,3,4,9-tetrahydro-8-methyl-4-(2-propenyl)-1H-carbazole-1-acetic acid] | 8.3 | 0.33 | – | 8.5 | –
14 | C=CCC1CCC(C)(CC(=O)O)c2[nH]c3ccccc3c21 (stereo not shown) [Example 12] | 18.7 | 1.9 | – | 6 | –
